# Assay results as given in patent publication US7230166B2, “Variety of four-leaf clover and a method for breeding the same” (priority 2002, dated 2007).
# Legend:
# Assay type in all cases: cell-based, white clover (Trifolium repense L.)
# [1] = test system: shoots of the white clover; test: Effects of BAP, IAA and NAA on the shoot propagation of the clover
# Description: Furthermore, in order to promote mutation and cell division of shoots of the white clover, the shoots were treated with cold water of 5° C. for 20 seconds, which in turn were transferred to a solution of Ethyl Methane Sulfonate of 0.2 μg/L for 3 seconds. Then, the shoots were washed with sterile water. […] The incubation of the shoots was carried out under the conditions of temperature of 21° C. and luminous intensity of 500 lux.
# [2] = test system: cut segments of the white clover; test: Effects of Ethyl Methane Sulfonate on the mutation of the shoots; conditions: for Color of leaves / Heliophilous / Mutation ratio (%) / Numbers of leaves / Numbers of stems / Shape of leaves: 3.0 sec
# Text: Two hundreds of wild-type white clovers, which were native in Korea, were harvested, wherein the respective clovers had three leaves and a stem of a length of about 7 cm.
# All leaves were removed from the clovers. Then, the stems of the clovers were cut at a length of about 3˜4 cm, which are transferred to a conical flask and subjected to a solution of ethyl alcohol of 70% for 30 seconds to sterilize the stems. Next, the segments of stems were washed with sterile water, which in turn were transferred to a solution of ethyl alcohol of 70% for 15 minutes to sterilize surfaces of the stem segments. Continuously, the stem segments were washed with sterile water three times.
# The sterilized segments of the white clovers were cut again at a length of 2˜3 mm in a clean bench, wherein each of the cut segments included growing point. The resulting cut segments of the white clover were treated with Ethyl Methane Sulfonate in order to induce mutation.
# Referring to the Table 1, shoots were respectively treated with Ethyl Methane Sulfonate of 0.1˜0.3 μg/L for 3 seconds. As the result, when the shoots were treated with Ethyl Methane Sulfonate of 0.2 μg/L, the ratio, regarding the growth of four leaves from the stem, is highest.
# [3] = test system: cultivated shoots of the clover; test: Effects of IAA/IBA and NAA on shoot growth and rooting of the cultivated shoots; conditions: for Length of roots (cm) / Length of shoots (cm) / Numbers of roots/segments / Numbers of shoots/segments / Weight of shoots/segments: basic MS medium + SUCROSE 20 g/L;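 for Length of roots (cm): Auxin doses in mg/L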;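 for Length of shoots (cm): Auxin doses in mg/L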;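 for Numbers of roots/segments: Auxin doses in mg/L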;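 for Numbers of shoots/segments: Auxin doses in mg/L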;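 for Weight of shoots/segments (g): Auxin doses in mg/L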
# Description: The cultivation was carried out under the conditions of acidity of pH 5.5, 22˜25° C. and luminous intensity of 800 lux.
# shoots of the clover = test: Effects of the density of sucrose in the medium on the propagation and growth of shoots
# Description: Meanwhile, sucrose of […] was added to the medium in order to reduce the callus formation and the transparency ratio during the cultivation of the shoots.
# [4] = medium with BAP of 1.0˜2.0 mg/L
# [5] = Sucrose 10 mg/L, basic MS medium + BAP 2.0 mg/L + IAA 0.5 mg/L
# [6] = Sucrose 15 mg/L, basic MS medium + BAP 2.0 mg/L + IAA 0.5 mg/L
# [7] = Sucrose 20 mg/L, basic MS medium + BAP 2.0 mg/L + IAA 0.5 mg/L
# [8] = Sucrose 25 mg/L, basic MS medium + BAP 2.0 mg/L + IAA 0.5 mg/L
# [9] = Sucrose 30 g/L, basic MS medium + BAP 2.0 mg/L + IAA 0.5 mg/L
smiles,measurement,setting,value
"c1ccc(CNc2ncnc3nc[nH]c23)cc1 [BAP, 6-Benzylaminopurine]",incubation efficiency of the shoots,[1]; in proportion to the density of the BAP,enhanced
same,average number of the shoots,[1]; [4],more than 2.7
same,transparency ratio,[1]; [4],more than 42.3%
"CCOS(C)(=O)=O [EMS, Ethyl Methane Sulfonate]",Color of leaves,[2]; EMS 0.1 μg/L,Light
same,Heliophilous,[2]; EMS 0.1 μg/L,0.3c
same,Mutation ratio (%),[2]; EMS 0.1 μg/L,12c %
same,Numbers of leaves,[2]; EMS 0.1 μg/L,4c
same,Numbers of stems,[2]; EMS 0.1 μg/L,6c
same,Shape of leaves,[2]; EMS 0.1 μg/L,Heart
same,Color of leaves,[2]; EMS 0.2 μg/L,Light
same,Heliophilous,[2]; EMS 0.2 μg/L,1.5a
same,Mutation ratio (%),[2]; EMS 0.2 μg/L,25a %
same,Numbers of leaves,[2]; EMS 0.2 μg/L,4a
same,Numbers of stems,[2]; EMS 0.2 μg/L,10b
same,Shape of leaves,[2]; EMS 0.2 μg/L,Heart
same,Color of leaves,[2]; EMS 0.3 μg/L,Light
same,Heliophilous,[2]; EMS 0.3 μg/L,2.5b
same,Mutation ratio (%),[2]; EMS 0.3 μg/L,18b %
same,Numbers of leaves,[2]; EMS 0.3 μg/L,4b
same,Numbers of stems,[2]; EMS 0.3 μg/L,8b
same,Shape of leaves,[2]; EMS 0.3 μg/L,Heart
same,ratio regarding the growth of four leaves from the stem,"[2]; Ethyl Methane Sulfonate of 0.2 μg/L for 3 seconds, among 0.1˜0.3 μg/L",highest
O=C(O)CCCc1c[nH]c2ccccc12 [IBA],Length of roots (cm),[3]; IBA 0.5,4.9 a cm
same,Length of shoots (cm),[3]; IBA 0.5,5.1 a cm
same,Numbers of roots/segments,[3]; IBA 0.5,2.2 ab
same,Numbers of shoots/segments,[3]; IBA 0.5,1.4 a
same,Weight of shoots/segments,[3]; IBA 0.5,3.4 g
same,Length of roots (cm),[3]; IBA 1.5,4.6 a cm
same,Length of shoots (cm),[3]; IBA 1.5,5.3 a cm
same,Numbers of roots/segments,[3]; IBA 1.5,2.8 ab
same,Numbers of shoots/segments,[3]; IBA 1.5,1.2 a
same,Weight of shoots/segments,[3]; IBA 1.5,4.66 g
same,Length of roots (cm),[3]; IBA 2.0,5.1 a cm
same,Length of shoots (cm),[3]; IBA 2.0,5.1 a cm
same,Numbers of roots/segments,[3]; IBA 2.0,3.4 a
same,Numbers of shoots/segments,[3]; IBA 2.0,1.0 a
same,Weight of shoots/segments,[3]; IBA 2.0,4.21 g
same,Length of roots (cm),[3]; IBA 5.0,3.1 b cm
same,Length of shoots (cm),[3]; IBA 5.0,4.7 a cm
same,Numbers of roots/segments,[3]; IBA 5.0,1.2 b
same,Numbers of shoots/segments,[3]; IBA 5.0,1
same,Weight of shoots/segments,[3]; IBA 5.0,3.33 g
same,rooting of the shoots,[3]; IBA of 0.5 mg/L added to the basic MS medium,induced well
"O=C(O)Cc1cccc2ccccc12 [NAA, α-Naphthaleneacetic Acid]",Length of roots (cm),[3]; NAA 0.5,4.8 a cm
same,Length of shoots (cm),[3]; NAA 0.5,4.6 a cm
same,Numbers of roots/segments,[3]; NAA 0.5,3.2 a
same,Numbers of shoots/segments,[3]; NAA 0.5,1.0 a
same,Weight of shoots/segments,[3]; NAA 0.5,3.92 g
same,Length of roots (cm),[3]; NAA 1.0,3.6 ab cm
same,Length of shoots (cm),[3]; NAA 1.0,4.8 a cm
same,Numbers of roots/segments,[3]; NAA 1.0,2.5 ab
same,Numbers of shoots/segments,[3]; NAA 1.0,1.1 a
same,Weight of shoots/segments,[3]; NAA 1.0,4.21 g
same,Length of roots (cm),[3]; NAA 2.0,3.4 b cm
same,Length of shoots (cm),[3]; NAA 2.0,4.8 a cm
same,Numbers of roots/segments,[3]; NAA 2.0,1.9 b
same,Weight of shoots/segments,[3]; NAA 2.0,3.42 g
same,Length of roots (cm),[3]; NAA 5.0,3.2 b cm
same,Length of shoots (cm),[3]; NAA 5.0,4.2 a cm
same,Numbers of roots/segments,[3]; NAA 5.0,1.6 b
same,Numbers of shoots/segments,[3]; NAA 5.0,1.0 a
same,Weight of shoots/segments,[3]; NAA 5.0,3.72 g
same,rooting of the shoots,[3]; NAA of 0.5˜1.0 mg/L added to the basic MS medium,induced well
"OC[C@H]1O[C@@](CO)(O[C@H]2O[C@H](CO)[C@@H](O)[C@H](O)[C@H]2O)[C@@H](O)[C@@H]1O [Sucrose, sucrose]",Length of shoots (cm),shoots of the clover; [5],3.2 a cm
same,Numbers of shoots/segments,shoots of the clover; [5],3.2 a^a
same,Weight of shoots/segments (g),shoots of the clover; [5],1.66 a g
same,transparency ratio (%),shoots of the clover; [5],3.46 b %
same,Length of shoots (cm),shoots of the clover; [6],4.1 a cm
same,Numbers of shoots/segments,shoots of the clover; [6],3.9 a
same,Weight of shoots/segments (g),shoots of the clover; [6],2.13 ab g
same,transparency ratio (%),shoots of the clover; [6],40.1 a %
same,Length of shoots (cm),shoots of the clover; [7],4.8 a cm
same,Numbers of shoots/segments,shoots of the clover; [7],4.0 a
same,Weight of shoots/segments (g),shoots of the clover; [7],2.17 ab g
same,transparency ratio (%),shoots of the clover; [7],46.7 a %
same,Callus formation,shoots of the clover; [8],++
same,Length of shoots (cm),shoots of the clover; [8],3.9 a cm
same,Numbers of shoots/segments,shoots of the clover; [8],3.6 a
same,Weight of shoots/segments (g),shoots of the clover; [8],2.43 ab g
same,transparency ratio (%),shoots of the clover; [8],42.4 a %
same,Callus formation,shoots of the clover; [9],+++
same,Length of shoots (cm),shoots of the clover; [9],4.4 a cm
same,Numbers of shoots/segments,shoots of the clover; [9],3.4 a
same,Weight of shoots/segments (g),shoots of the clover; [9],2.73 a g
same,transparency ratio (%),shoots of the clover; [9],50.7 a %
same,Callus formation,shoots of the clover; sucrose of 15˜20 g/L in the medium,callus was generated only
